Data: US20240287022A1 (Merck Sharp & Dohme LLC, priority 2021, published 2024)

Target: recombinant IL4I1 (Homo sapiens (Human), UniProt Q96RQ9)
Experiment: IL4I1 Enzymatic Assay (Amplex Red/HRP coupled H2O2 detection)
Assay type: biochemical
Settings: 1 nM IL4I1, 1 mM each Phe/Tyr/Trp, four-hour pre-incubation, 120 minutes reaction, top compound concentration of 10000 nM
Method: Interleukin 4 inducible protein 1 (IL4I1) is an L-amino oxidase that catalyzes the oxidation of aromatic residues (Phe, Trp and Tyr): L-amino acid+H2O+O2→2-oxo acid+NH3+H2O2. Equal molar of H2O2 and the corresponding alpha-ketoacid are produced when IL4I1 and substrate are added. In this assay, the hydrogen peroxide generated by IL4I1 are then detected through a coupled reaction with Amplex Red (10-acetyl-3,7-dihydroxyphenoxazine) and […] (HRP) to produce Resorufin product that could be detected in the form of fluorescence signals. The assessment of the inhibitory effect of small molecules (EC50) on IL4I1 is measured by the effectiveness of the compounds to inhibit the production of H2O2.
Using this assay, the potency (EC50) of each compound was determined from a ten-point (1:3 serial dilution; top compound concentration of 10000 nM) titration curve using the following outlined procedure. To each well of a black flat-bottom Greiner (Cat #781076) 384 well-plate, 25 nL of compound (0.1% DMSO in final assay volume of 25 μL) was dispensed, followed by the addition of 12.5 μL of 1× assay buffer (50 mM Hepes 7.0 and 0.005% Tween20 (Sigma, Cat #P8341; low peroxide grade)) containing 2 nM of recombinant IL4I1 (R&D Systems, Cat #5684-AO-020). Plates were placed in an ambient temperature humidified chamber for a four-hour pre-incubation with compound. Subsequently, each reaction was initiated by the addition of 12.5 μL 1× assay buffer containing 2 mM of each aromatic amino acids (Phe/Tyr/Trp), 0.1 mM Amplex Red and 2 U/mL of HRP. The final reaction in each well of 25 μL consists of 1 nM of IL4I1, 1 mM of each residues (Phe, Tyr and Trp), 0.05 mM Amplex Red and 1 U/mL of HRP. It should be noted that the concentrations of Amplex Red and HRP used here are in excess such that the conversion of H2O2 to Resorufin product occurs instantaneously and non-rate limiting. Reactions were allowed to proceed for 120 minutes followed by fluorescence readout on a Spectramax with the following set parameters: 544 nm excitation/590 nm emission, 570 nm cutoff (EnVision is an alternative reader). Dose-response curves were generated by plotting percent effect (% product conversion; Y-axis) vs. Log10 compound concentrations (X-axis). EC50 values were calculated using a non-linear regression, four-parameters sigmoidal dose-response model.

recombinant IL4I1, sequence (Q96RQ9 22-567): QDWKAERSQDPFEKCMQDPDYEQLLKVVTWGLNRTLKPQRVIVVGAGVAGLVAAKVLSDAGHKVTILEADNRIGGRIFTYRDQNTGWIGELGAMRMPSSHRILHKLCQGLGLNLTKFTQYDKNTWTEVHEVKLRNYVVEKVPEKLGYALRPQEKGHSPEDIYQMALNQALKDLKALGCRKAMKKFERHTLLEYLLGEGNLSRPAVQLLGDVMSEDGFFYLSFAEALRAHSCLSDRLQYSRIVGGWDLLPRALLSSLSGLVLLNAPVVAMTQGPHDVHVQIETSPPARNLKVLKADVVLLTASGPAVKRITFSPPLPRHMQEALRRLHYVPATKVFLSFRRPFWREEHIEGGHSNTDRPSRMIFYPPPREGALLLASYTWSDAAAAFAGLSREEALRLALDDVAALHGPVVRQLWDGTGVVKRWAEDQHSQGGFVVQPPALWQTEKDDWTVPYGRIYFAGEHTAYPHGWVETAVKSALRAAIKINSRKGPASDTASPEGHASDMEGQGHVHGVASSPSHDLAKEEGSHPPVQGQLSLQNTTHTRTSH

EC50	Structure (SMILES)
0.125 µM	CC(c1nnc(Cc2cc3ccccc3[nH]c2=O)o1)C1CC1 (racemic) [Example 19, rac-3-((5-(1-cyclopropylethyl)-1,3,4-oxadiazol-2-yl)methyl)quinolin-2(1H)-one]
0.0156 µM	O=C1OC(CO)CN1c1ccc(Cc2cc3ccccc3[nH]c2=O)cn1 (racemic) [Example 49, rac-5-(hydroxymethyl)-3-(5-((2-oxo-1,2-dihydroquinolin-3-yl)methyl)pyridin-2-yl)oxazolidin-2-one]
0.0189 µM	CC1(CO)CN(c2ccc(Cc3cc4ccccc4[nH]c3=O)cn2)C(=O)O1 (racemic) [Example 50, rac-5-(hydroxymethyl)-5-methyl-3-(5-((2-oxo-1,2-dihydroquinolin-3-yl)methyl)pyridin-2-yl)oxazolidin-2-one]
0.0291 µM	CC1(O)CN(c2ccc(Cc3cc4ccccc4[nH]c3=O)cn2)C(=O)O1 (racemic) [Example 51, rac-5-hydroxy-5-methyl-3-(5-((2-oxo-1,2-dihydroquinolin-3-yl)methyl)pyridin-2-yl)oxazolidin-2-one]
0.0027 µM	O=c1[nH]c2ccccc2cc1Cc1ccc(C(O)C(F)(F)F)cc1 (racemic) [Example 126, rac-3-(4-(2,2,2-trifluoro-1-hydroxyethyl)benzyl)quinolin-2(1H)-one]
0.0026 µM	N#CC1(c2ccc(Cc3cc4ccccc4[nH]c3=O)cc2)CC(O)C1 (single isomer, unassigned) [Example 101A, 3-hydroxy-1-(4-((2-oxo-1,2-dihydroquinolin-3-yl)methyl)phenyl)cyclobutane-1-carbonitrile]
0.0052 µM	CC(O)C(C#N)c1ccc(Cc2cc3ccccc3[nH]c2=O)cc1 (single isomer, unassigned) [Example 102A, 3-hydroxy-2-(4-((2-oxo-1,2-dihydroquinolin-3-yl)methyl)phenyl)butanenitrile]
0.0078 µM	CC(O)C(C#N)c1ccc(Cc2cc3ccccc3[nH]c2=O)cc1 (single isomer, unassigned) [Example 102B, 3-hydroxy-2-(4-((2-oxo-1,2-dihydroquinolin-3-yl)methyl)phenyl)butanenitrile]
0.0118 µM	CC(O)C(C#N)c1ccc(Cc2cc3ccccc3[nH]c2=O)cc1 (single isomer, unassigned) [Example 102C, 3-hydroxy-2-(4-((2-oxo-1,2-dihydroquinolin-3-yl)methyl)phenyl)butanenitrile]
0.0109 µM	CC(O)C(C#N)c1ccc(Cc2cc3ccccc3[nH]c2=O)cc1 (single isomer, unassigned) [Example 102D, 3-hydroxy-2-(4-((2-oxo-1,2-dihydroquinolin-3-yl)methyl)phenyl)butanenitrile]
0.0044 µM	C[C@H]1Oc2ccc(Cc3cc4ccccc4[nH]c3=O)cc2NC1=O (single isomer, unassigned) [Example 142A, 2-methyl-6-((2-oxo-1,2-dihydroquinolin-3-yl)methyl)-2H-benzo[b][1,4]oxazin-3(4H)-one]
0.0157 µM	C[C@]1(c2ccc(Cc3cc4ccccc4[nH]c3=O)cc2)CCC(=O)N1 (single isomer, unassigned) [Example 183A, (S or R)-3-(4-(2-methyl-5-oxopyrrolidin-2-yl)benzyl)quinolin-2(1H)-one]
0.0111 µM	CC1(c2ccc(Cc3cc4ccccc4[nH]c3=O)cc2)CCC(=O)N1 (single isomer, unassigned) [Example 183B, (R or S)-3-(4-(2-methyl-5-oxopyrrolidin-2-yl)benzyl)quinolin-2(1H)-one]
0.0282 µM	CS(=N)(=O)Cc1ccc(Cc2cc3ccccc3[nH]c2=O)cc1 (single isomer, unassigned) [Example 186, 3-(4-(((R or S)-methylsulfonimidoyl)methyl)benzyl)quinolin-2(1H)-one]
0.0286 µM	CS(=N)(=O)Cc1ccc(Cc2cc3ccccc3[nH]c2=O)cc1 (single isomer, unassigned) [Example 187, 3-(4-(((S or R)-methylsulfonimidoyl)methyl)benzyl)quinolin-2(1H)-one]
0.0123 µM	CC1CN(c2ccc(Cc3cc4cnccc4[nH]c3=O)cc2)C(=O)O1 (single isomer, unassigned) [Example 188, (R or S)-5-methyl-3-(4-((2-oxo-1,2-dihydro-1,6-naphthyridin-3-yl)methyl)phenyl)oxazolidin-2-one]
0.0167 µM	CC1CN(c2ccc(Cc3cc4cnccc4[nH]c3=O)cc2)C(=O)O1 (single isomer, unassigned) [Example 189, (S or R)-5-methyl-3-(4-((2-oxo-1,2-dihydro-1,6-naphthyridin-3-yl)methyl)phenyl)oxazolidin-2-one]
0.0096 µM	C[C@@](O)(c1ccc(Cc2cc3ccccc3[nH]c2=O)cc1)C(F)F (stereo in doubt) [Example 90A, 3-(4-(1,1-difluoro-2-hydroxypropan-2-yl)benzyl)quinolin-2(1H)-one]
0.0814 µM	C[C@@H]1Oc2ccc(Cc3cc4ccccc4[nH]c3=O)cc2NC1=O (stereo in doubt) [Example 142B, 2-methyl-6-((2-oxo-1,2-dihydroquinolin-3-yl)methyl)-2H-benzo[b][1,4]oxazin-3(4H)-one]
0.0071 µM	O=c1[nH]c2ccccc2cc1Cc1ccc([C@@H]2CCNC2)cc1 [65A]
0.009 µM	O=c1[nH]c2ccccc2cc1Cc1ccc([C@H]2CCNC2)cc1 [65B]
0.0155 µM	O=C(c1ccc(Cc2cc3ccccc3[nH]c2=O)cc1)N1CC(O)C1 [Example 1, 3-(4-(3-hydroxyazetidine-1-carbonyl)benzyl)quinolin-2(1H)-one]
0.002 µM	O=c1[nH]c2ccccc2cc1Cc1nnc(-c2c(F)cccc2F)o1 [Example 3, 3-((5-(2,6-difluorophenyl)-1,3,4-oxadiazol-2-yl)methyl)quinolin-2(1H)-one]
0.0771 µM	O=c1[nH]c2ccccc2cc1Cc1nnc(-c2cnn[nH]2)o1 [Example 4, 3-((5-(1H-1,2,3-triazol-5-yl)-1,3,4-oxadiazol-2-yl)methyl)quinolin-2(1H)-one]
0.042 µM	O=c1[nH]c2ccccc2cc1Cc1nnc(-c2ccccc2)o1 [Example 5, 3-((5-phenyl-1,3,4-oxadiazol-2-yl)methyl)quinolin-2(1H)-one]
0.0028 µM	O=c1[nH]c2ccccc2cc1Cc1nnc(-c2cn[nH]c2)o1 [Example 6, 3-((5-(1H-pyrazol-4-yl)-1,3,4-oxadiazol-2-yl)methyl)quinolin-2(1H)-one]
0.0822 µM	O=c1[nH]c2ccccc2cc1Cc1nnc(-c2ccc(C(F)(F)F)cc2)o1 [Example 7, 3-((5-(4-(trifluoromethyl)phenyl)-1,3,4-oxadiazol-2-yl)methyl)quinolin-2(1H)-one]
0.0128 µM	O=c1[nH]c2ccccc2cc1Cc1nnc(Cc2ccccc2F)o1 [Example 8, 3-((5-(2-fluorobenzyl)-1,3,4-oxadiazol-2-yl)methyl)quinolin-2(1H)-one]
0.0511 µM	O=c1[nH]c2ccccc2cc1Cc1nnc(C2CCCCC2)o1 [Example 9, 3-((5-cyclohexyl-1,3,4-oxadiazol-2-yl)methyl)quinolin-2(1H)-one]
0.0076 µM	O=c1[nH]c2ccccc2cc1Cc1nnc(-c2cccc(C(F)(F)F)c2)o1 [Example 10, 3-((5-(3-(trifluoromethyl)phenyl)-1,3,4-oxadiazol-2-yl)methyl)quinolin-2(1H)-one]
